# From US20250122223A1, “HETEROCYCLIC COMPOUNDS AS UBIQUITIN SPECIFIC PROTEASE 7 INHIBITORS” (ALMAC DISCOVERY LIMITED, priority 2022, published 2025)
# Like-named read-outs stand apart in the source and are kept apart here.
# Target: USP7 (Homo sapiens (Human), UniProt Q93009)
# Assay: USP7 fluorescence polarisation (FP) assay with ubiquitin-Lys-TAMRA substrate
# Assay type: biochemical
# Conditions: biochemical inhibition
# Description: USP7 activity was monitored in a fluorescence polarisation (FP) homogeneous assay using the isopeptide ubiquitin-Lys-TAMRA substrate (U-558, Boston Biochem). Full-length USP7 was purchased from Boston Biochem (His6-USP7FL, E-519). Unless otherwise stated, all other reagents were purchased from Sigma-Aldrich. Enzymatic reactions were conducted in black flat-bottom low volume polystyrene 384-well plates (Grenier) and 15 μL total volume. USP7 (2.5 nM, 5 μL) was incubated in assay buffer (50 mM HEPES (pH 7.2), 150 mM NaCl, 5 mM DTT, 0.05% BSA (w/v), 0.05% CHAPS) in the presence or absence of inhibitor (5 μL). Inhibitors were stored as 10 mM DMSO stocks in an inert environment (low humidity, dark, low oxygen, room temperature) using a Storage Pod System and serial dilutions were prepared in buffer just prior to the assay (from 200 to 0.003 μM, 11 dp curve). Following incubation at room temperature for 30 min, the enzymatic reactions were initiated by dispensing the Ub substrate (50 nM, 5 μL). FP was measured every 5 min over a period of 1.5 h (within the linear range of the assay) using a Pherastar FSX (BMG Labtech) exciting at 530 nm and measuring the amount of parallel and perpendicular light at 575 nm. The FP signal was subsequently normalised to the control without compound present. Data were plotted and fitted, and the concentrations resulting in 50% inhibition (IC50) were calculated using the non-linear regression curve fitting model using GraphPad Prism.
# [1] = read-out: USP7 IC50 activity (Table 3a, classes)
# [2] = unit not given in Table 3b (Table 1 and key of Table 3a use μM), read-out: USP7 IC50 activity (Table 3b)
# Chain of USP7 (Q93009 whole entry): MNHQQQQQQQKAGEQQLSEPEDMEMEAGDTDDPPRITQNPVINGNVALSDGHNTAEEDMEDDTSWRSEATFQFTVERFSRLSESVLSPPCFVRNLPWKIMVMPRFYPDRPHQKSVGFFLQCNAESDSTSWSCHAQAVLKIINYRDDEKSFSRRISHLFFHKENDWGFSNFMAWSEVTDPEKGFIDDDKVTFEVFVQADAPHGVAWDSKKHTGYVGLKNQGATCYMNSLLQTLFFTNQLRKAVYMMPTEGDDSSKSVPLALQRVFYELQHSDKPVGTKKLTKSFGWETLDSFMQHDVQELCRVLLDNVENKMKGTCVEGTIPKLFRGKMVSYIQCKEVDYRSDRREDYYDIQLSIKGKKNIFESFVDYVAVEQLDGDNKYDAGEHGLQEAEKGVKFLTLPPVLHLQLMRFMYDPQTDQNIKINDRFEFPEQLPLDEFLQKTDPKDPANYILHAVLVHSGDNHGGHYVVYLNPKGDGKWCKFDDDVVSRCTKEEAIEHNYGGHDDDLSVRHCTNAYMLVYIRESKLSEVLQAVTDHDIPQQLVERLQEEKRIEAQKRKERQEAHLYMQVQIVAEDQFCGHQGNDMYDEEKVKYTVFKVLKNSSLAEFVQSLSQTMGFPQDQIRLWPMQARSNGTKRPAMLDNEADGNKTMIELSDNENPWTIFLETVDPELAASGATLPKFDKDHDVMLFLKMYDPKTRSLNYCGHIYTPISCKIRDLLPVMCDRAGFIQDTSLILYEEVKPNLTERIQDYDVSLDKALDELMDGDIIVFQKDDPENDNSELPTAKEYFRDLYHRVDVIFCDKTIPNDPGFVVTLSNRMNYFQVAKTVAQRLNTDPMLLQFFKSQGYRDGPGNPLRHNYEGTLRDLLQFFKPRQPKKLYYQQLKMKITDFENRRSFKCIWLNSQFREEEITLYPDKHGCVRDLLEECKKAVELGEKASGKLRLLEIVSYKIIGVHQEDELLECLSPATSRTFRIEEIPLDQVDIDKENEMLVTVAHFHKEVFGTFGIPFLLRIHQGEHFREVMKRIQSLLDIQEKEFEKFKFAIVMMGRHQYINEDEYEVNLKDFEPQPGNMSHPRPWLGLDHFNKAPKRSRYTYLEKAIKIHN
SMILES,IC50 [1] [µM],IC50 [2] [µM]
"CN1CCOCC1c1ccc(-n2c(Cl)cc3c(=O)n(CC4(O)CCN(C(=O)C5(C)CC5)CC4)cnc32)cc1 (centres unmarked) [Example 75, 6-Chloro-3-((4-hydroxy-1-(1-methylcyclopropane-1-carbonyl)piperidin-4-yl)methyl)-7-(4-(4-methylmorpholin-3-yl)phenyl)-3,7-dihydro-4H-pyrrolo[2,3-d]pyrimidin-4-one]",0.25 to 2,2.09
"C[C@H]1CN[C@H](c2ccc(-n3c(Cl)cc4c(=O)n(CC5(O)CCN(C(=O)c6ccc(Cl)cc6)CC5)cnc43)cc2)CO1 [Example 4, 6-Chloro-3-((1-(4-chlorobenzoyl)-4-hydroxypiperidin-4-yl)methyl)-7-(4-((3R,6S)-6-methylmorpholin-3-yl)phenyl)-3,7-dihydro-4H-pyrrolo[2,3-d]pyrimidin-4-one]",0.1 to 0.25,0.222
"O=C(c1ccc(Cl)cc1)N1CCC(O)(Cn2cnc3c(cc(Cl)n3-c3ccc(C4COC5CCCC5N4)cc3)c2=O)CC1 (centres unmarked) [Example 54, 6-Chloro-3-((1-(4-chlorobenzoyl)-4-hydroxypiperidin-4-yl)methyl)-7-(4-(octahydrocyclopenta[b][1,4]oxazin-3-yl)phenyl)-3,7-dihydro-4H-pyrrolo[2,3-d]pyrimidin-4-one]",0.1 to 0.25,0.151
"Cc1ccc(C(=O)N2CCC(O)(Cn3cnc4c(cc(Cl)n4-c4ccc([C@H]5CO[C@H](C)CN5)c(C)c4)c3=O)CC2)c(C)c1 [Example 58, 6-Chloro-3-((1-(2,4-dimethylbenzoyl)-4-hydroxypiperidin-4-yl)methyl)-7-(3-methyl-4-((3S,6R)-6-methylmorpholin-3-yl)phenyl)-3,7-dihydro-4H-pyrrolo[2,3-d]pyrimidin-4-one]",0.25 to 2,0.414
"C[C@H]1CN[C@H](c2ccc(-n3c(Cl)cc4c(=O)n(CC5(O)CCN(C(=O)[C@@]6(C)C[C@@H]6C(F)F)CC5)cnc43)cc2)CO1 [Example 111, 6-Chloro-3-((1-((1 S,2S)-2-(difluoromethyl)-1-methylcyclopropane-1-carbonyl)-4-hydroxypiperidin-4-yl)methyl)-7-(4-((3R,6S)-6-methylmorpholin-3-yl)phenyl)-3,7-dihydro-4H-pyrrolo[2,3-d]pyrimidin-4-one]",0.1 to 0.25,0.145
"CC1(C)CN[C@H](c2ccc(-n3c(Cl)cc4c(=O)n(CC5(O)CCN(C(=O)c6ccc(F)cc6)CC5)cnc43)cc2)CO1 (single isomer, unassigned) [Example 29]",0.1 to 0.25,0.118
"CC[C@@H]1CN[C@@H](c2ccc(-n3c(Cl)cc4c(=O)n(CC5(O)CCN(C(=O)C6(C)CC6)CC5)cnc43)cc2)CO1 [Example 105, 6-Chloro-7-(4-((3S,6R)-6-ethylmorpholin-3-yl)phenyl)-3-((4-hydroxy-1-(1-methylcyclopropane-1-carbonyl)piperidin-4-yl)methyl)-3,7-dihydro-4H-pyrrolo[2,3-d]pyrimidin-4-one]",< 0.1,0.073
"C[C@H]1CN[C@H](c2ccc(-n3c(Cl)cc4c(=O)n(CC5(O)CCN(C(=O)c6ccc(C(F)F)cc6)CC5)cnc43)cc2)CO1 [Example 91, 6-Chloro-3-((1-(4-(difluoromethyl)benzoyl)-4-hydroxypiperidin-4-yl)methyl)-7-(4-((3R,6S)-6-methylmorpholin-3-yl)phenyl)-3,7-dihydro-4H-pyrrolo[2,3-d]pyrimidin-4-one]",0.1 to 0.25,0.167
"C[C@H]1CN[C@H](c2ccc(-n3c(Cl)cc4c(=O)n(CC5(O)CCN(C(=O)/C=C/c6ccccc6)CC5)cnc43)cc2)CO1 [Example 63, 6-Chloro-3-((1-cinnamoyl-4-hydroxypiperidin-4-yl)methyl)-7-(4-((3R,6S)-6-methylmorpholin-3-yl)phenyl)-3,7-dihydro-4H-pyrrolo[2,3-d]pyrimidin-4-one]",0.1 to 0.25,0.221
"C[C@H]1CN[C@H](c2ccc(-n3c(Cl)cc4c(=O)n(CC5(O)CCN(C(=O)C6(C7CC7)CC6)CC5)cnc43)cc2)CO1 [Example 42, 3-((1-([1,1′-Bi(cyclopropane)]-1-carbonyl)-4-hydroxypiperidin-4-yl)methyl)-6-chloro-7-(4-((3R,6S)-6-methylmorpholin-3-yl)phenyl)-3,7-dihydro-4H-pyrrolo[2,3-d]pyrimidin-4-one]",< 0.1,0.091

# The next lines start with the values.
IC50 [1] [µM],IC50 [2] [µM],SMILES
< 0.1,0.039,"O=C(N1CCC(O)(Cn2cnc3c(cc(Cl)n3-c3ccc([C@H]4COCCN4)cc3)c2=O)CC1)C1(C2CC2)CC1 (single isomer, unassigned) [Example 79]"
< 0.1,0.079,"CC1(C)CN[C@H](c2ccc(-n3c(Cl)cc4c(=O)n(CC5(O)CCN(C(=O)C6(C7CC7)CC6)CC5)cnc43)cc2)CO1 (single isomer, unassigned) [Example 41]"
0.1 to 0.25,0.111,"Cc1cc(-n2c(Cl)cc3c(=O)n(CC4(O)CCN(C(=O)c5ccc(C(F)F)cc5)CC4)cnc32)ccc1[C@H]1CO[C@H](C)CN1 [Example 92, 6-Chloro-3-((1-(4-(difluoromethyl)benzoyl)-4-hydroxypiperidin-4-yl)methyl)-7-(3-methyl-4-((3S,6R)-6-methylmorpholin-3-yl)phenyl)-3,7-dihydro-4H-pyrrolo[2,3-d]pyrimidin-4-one]"
< 0.1,0.05,"O=C(N1CCC(O)(Cn2cnc3c(cc(Cl)n3-c3ccc([C@@H]4COC5(CCC5)CN4)cc3)c2=O)CC1)C1(C2CC2)CC1 (racemic) [Example 43, 7-(4-(5-Oxa-8-azaspiro[3.5]nonan-7-yl)phenyl)-3-((1-([1,1′-bi(cyclopropane)]-1-carbonyl)-4-hydroxypiperidin-4-yl)methyl)-6-chloro-3,7-dihydro-4H-pyrrolo[2,3-d]pyrimidin-4-one]"
< 0.1,0.258,"Cc1cc(-n2c(Cl)cc3c(=O)n(CC4(O)CCN(C(=O)c5cccc(Cl)c5)CC4)cnc32)ccc1[C@H]1CO[C@H](C)CN1 [Example 51, 6-Chloro-3-((1-(3-chlorobenzoyl)-4-hydroxypiperidin-4-yl)methyl)-7-(3-methyl-4-((3S,6R)-6-methylmorpholin-3-yl)phenyl)-3,7-dihydro-4H-pyrrolo[2,3-d]pyrimidin-4-one]"
0.1 to 0.25,0.156,"CC1(C)CN[C@H](c2ccc(-n3c(Cl)cc4c(=O)n(CC5(O)CCN(C(=O)C6(C7CC7)CC6)CC5)cnc43)cc2)CO1 (single isomer, unassigned) [Example 40]"
< 0.1,0.041,"O=C(N1CCC(O)(Cn2cnc3c(cc(Cl)n3-c3ccc([C@@H]4COCCN4)cc3)c2=O)CC1)C1(C2CC2)CC1 (single isomer, unassigned) [Example 80]"
0.1 to 0.25,0.225,"Cc1cc(-n2c(Cl)cc3c(=O)n(CC4(O)CCN(C(=O)c5ccc(Cl)cc5)CC4)cnc32)ccc1[C@@H]1CO[C@@H](C)CN1 [Example 5, 6-Chloro-3-((1-(4-chlorobenzoyl)-4-hydroxypiperidin-4-yl)methyl)-7-(3-methyl-4-((3R,6S)-6-methylmorpholin-3-yl)phenyl)-3,7-dihydro-4H-pyrrolo[2,3-d]pyrimidin-4-one]"
0.1 to 0.25,0.134,"O=C(C[C@H](c1ccccc1)C(F)(F)F)N1CCC(O)(Cn2cnc3c(cc(Cl)n3-c3ccc([C@H]4COCCN4)c(Cl)c3)c2=O)CC1 (mixture of isomers) [Example 86, 6-Chloro-7-(3-chloro-4-((S)-morpholin-3-yl)phenyl)-3-((4-hydroxy-1-((R)-4,4,4-trifluoro-3-phenylbutanoyl)piperidin-4-yl)methyl)-3,7-dihydro-4H-pyrrolo[2,3-d]pyrimidin-4-one and 6-chloro-7-(3-chloro-4-((R)-morpholin-3-yl)phenyl)-3-((4-hydroxy-1-((R)-4,4,4-trifluoro-3-phenylbutanoyl)piperidin-4-yl)methyl)-3,7-dihydro-4H-pyrrolo[2,3-d]pyrimidin-4-one (1:1)]"
0.25 to 2,0.372,"CC1(C(=O)N2CCC(O)(Cn3cnc4c(cc(Cl)n4-c4ccc(C5COCC6(CC6)N5)cc4)c3=O)CC2)CC1 (centres unmarked) [Example 19, 7-(4-(7-Oxa-4-azaspiro[2.5]octan-5-yl)phenyl)-6-chloro-3-((4-hydroxy-1-(1-methylcyclopropane-1-carbonyl)piperidin-4-yl)methyl)-3,7-dihydro-4H-pyrrolo[2,3-d]pyrimidin-4-one]"
0.25 to 2,0.42,"O=C(c1ccc(Cl)cc1)N1CCC(O)(Cn2cnc3c(cc(Cl)n3-c3ccc([C@@H]4CO[C@@H](C(F)(F)F)CN4)cc3)c2=O)CC1 (racemic) [Example 9, rac-6-Chloro-3-((1-(4-chlorobenzoyl)-4-hydroxypiperidin-4-yl)methyl)-7-(4-((3R,6R)-6-(trifluoromethyl)morpholin-3-yl)phenyl)-3,7-dihydro-4H-pyrrolo[2,3-d]pyrimidin-4-one]"
0.1 to 0.25,0.164,"C[C@H]1CN[C@H](c2ccc(-n3c(Cl)cc4c(=O)n(CC5(O)CCN(C(=O)c6ccc(Cl)cc6F)CC5)cnc43)cc2)CO1 [Example 30, 6-Chloro-3-((1-(4-chloro-2-fluorobenzoyl)-4-hydroxypiperidin-4-yl)methyl)-7-(4-((3R,6S)-6-methylmorpholin-3-yl)phenyl)-3,7-dihydro-4H-pyrrolo[2,3-d]pyrimidin-4-one]"
